For assay [1], the system named is MCF7. The assay is described as follows: Cytotoxicity against human MCF7 cells after 48 hrs by MTT assay. The class given is functional, cell-based. To be noted: MCF7, 48 h.
In assay [2] the test system is HL-60. The experiment in a line: Cytotoxicity against human HL60 cells after 48 hrs by MTT assay. The class given is functional, cell-based. To be noted: HL-60, 48 h. In general terms: Tetrazolium assays rely on reduction of a dye to a coloured formazan, in cell work by metabolically active cells.
Assay [3] concerns NALM-6. The experiment in a line: Cytotoxicity against human NALM6 cells after 48 hrs by MTT assay. The class given is functional, cell-based. To be noted: NALM-6, 48 h.
The subject of assay [4] is MCF-10A. The experiment in a line: Cytotoxicity against human MCF10A cells after 48 hrs by MTT assay. Format: cell-based.
For assay [5], the system named is HUVEC. The assay is described as follows: Cytotoxicity against human HUVEC cells after 48 hrs by MTT assay. Format: cell-based.
Assay [6] deals with MCF7. The experiment in a line: Cell cycle arrest in human MCF7 cells assessed as accumulation at G2/M phase at 12.76 +/- 0.46 uM after 24 hrs by propidium iodide staining-based flow cytometric analysis (reference value: 20.3%). Format: functional.
For assay [7], the system named is MCF7. The experiment in a line: Cytotoxicity against human MCF7 cells after 24 hrs by MTT assay. The class given is functional, cell-based. To be noted: MCF7, 24 h.
A short description of assay [8]: Selectivity index, ratio of IC50 for human MCF10A cells to IC50 for human MCF7 cells. Format: functional.
Assay [9] deals with MCF7. The assay is described as follows: Cell cycle arrest in human MCF7 cells assessed as accumulation at S phase at 12.76 +/- 0.46 uM after 24 hrs by propidium iodide staining-based flow cytometric analysis (reference value: 25.9%). The class given is functional. (A flow cytometer gives signals particle by particle.)
Assay [10] in a line: Selectivity index, ratio of IC50 for human MCF10A cells to IC50 for human NALM6 cells. The class given is functional.
Assay [11] relates to MCF7. The experiment in a line: Induction of apoptosis in human MCF7 cells assessed as upregulation of Bax mRNA level at 12.76 +/- 0.46 uM by quantitative real-time PCR method. The class given is functional, cell-based. In general terms: Real-time PCR tracks product formation cycle by cycle.
Assay [12] has as its system MCF7. The assay is described as follows: Induction of apoptosis in human MCF7 cells assessed as viable cells at 12.76 +/- 0.46 uM after 24 hrs by annexin V-FITC/propidium iodide staining-based flow cytometric method (reference value: 83.4%). Format: functional.
In assay [13] the test system is MCF7. The assay is described as follows: Cell cycle arrest in human MCF7 cells assessed as accumulation at G0/G1 phase at 12.76 +/- 0.46 uM after 24 hrs by propidium iodide staining-based flow cytometric analysis (reference value: 52.2%). Format: functional.
For assay [14], the system named is MCF7. The assay is described as follows: Cell cycle arrest in human MCF7 cells assessed as accumulation at sub G0/G1 phase at 12.76 +/- 0.46 uM after 24 hrs by propidium iodide staining-based flow cytometric analysis (reference value: 1.3%). Format: functional.
Assay [15] deals with MCF7. The assay is described as follows: Induction of apoptosis in human MCF7 cells assessed as downregulation of Bcl-2 mRNA level at 12.76 +/- 0.46 uM by quantitative real-time PCR method. The class given is functional, cell-based.
Assay [16] has as its system MCF7. The experiment in a line: Induction of apoptosis in human MCF7 cells assessed as necrotic cells at 12.76 +/- 0.46 uM after 24 hrs by annexin V-FITC/propidium iodide staining-based flow cytometric method (reference value: 4.1%). Format: functional.
Assay [17] relates to MCF7. The experiment in a line: Induction of apoptosis in human MCF7 cells assessed as upregulation of caspase-3 mRNA level at 12.76 +/- 0.46 uM by quantitative real-time PCR method. Format: functional, cell-based.
Assay [18] in a line: Selectivity index, ratio of IC50 for human MCF7 cells to IC50 for human MCF10A cells. Format: functional.
The test system of assay [19] is MCF7. The experiment in a line: Induction of apoptosis in human MCF7 cells assessed as late apoptotic cells at 12.76 +/- 0.46 uM after 24 hrs by annexin V-FITC/propidium iodide staining-based flow cytometric method (reference value: 10.1 +/- 0.2%). Format: functional.
The test system of assay [20] is MCF7. The experiment in a line: Disruption of mitochondrial membrane potential in human MCF7 cells assessed as intact mitochondrial membrane at 12.76 +/- 0.46 uM after 24 hrs by JC10 staining-based flow cytometric method (reference value: 76.1%). The class given is functional.
In assay [21] the test system is MCF7. The experiment in a line: Disruption of mitochondrial membrane potential in human MCF7 cells assessed as collapse of the mitochondrial membrane potential at 12.76 +/- 0.46 uM after 24 hrs by JC10 staining-based flow cytometric method (reference value: 23.9%). The class given is functional.
Assay [22] concerns MCF7. The experiment in a line: Induction of apoptosis in human MCF7 cells assessed as early apoptotic cells at 12.76 +/- 0.46 uM after 24 hrs by annexin V-FITC/propidium iodide staining-based flow cytometric method (reference value: 1.7%). The class given is functional.

pIC50: −log10 of the molar value. Activity calls are given as the source filed them. The calls are words filed in the database; no cut-off is given here. A value given as a limit tells only on which side of the number the result lay.

In general, pIC50 refers to the IC50 on a negative log10 scale, so that one unit is a factor of ten. As for `C=C1C(=O)Oc2ccccc2[C@H]1[C@@H]1CCCC1=O`, the pIC50 was 4.83 in [1], 3.24 in [2] and 3.31 in assay [3].

Take `C=C1C(=O)Oc2ccccc2[C@H]1[C@@H]1CCCCC1=O`: the pIC50 in [1] was 5.10; in [2], 3.20; in assay [3], 4.07.

With `C=C1C(=O)Oc2c(OC)cccc2C1CC(C)=O` (configuration not stated), the figures for the negative-log IC50 (pIC50) in assay [1], in assay [2] and in [3] were 4.98, 4.04 and 4.14, respectively.

Regarding `C=C1C(=O)Oc2ccccc2[C@H]1[C@@H]1Cc2ccccc2C1=O`, the pIC50 in [1] was 4.77; in assay [2], 3.61; in assay [3], 3.15.

As for `C=C1C(=O)Oc2ccc(Cl)cc2C1CC(C)=O` (configuration not stated), the negative logarithm of the IC50 (pIC50) is 4.79 in [1], 3.54 in assay [2] and 3.37 in assay [3].

In the case of `C=C1C(=O)Oc2ccccc2C1CC(C)=O` (configuration not stated), the results for the negative logarithm of the IC50 (pIC50) in assay [1], in assay [2] and in [3] were 4.94, 4.08 and 4.03, respectively.

For `C=C1C(=O)Oc2c(OC)cccc2[C@H]1[C@@H]1CCc2cc(OC)ccc2C1=O` (relative stereo), the pIC50 in [1] is 4.76; in [2], 5.44; in assay [3] it was 6.06; in [4], 4.87; in assay [5], 5.31.

Take `C=C1C(=O)Oc2ccc(Cl)cc2[C@H]1[C@@H]1Cc2ccccc2C1=O` (relative stereo): the negative-log IC50 (pIC50) is 4.82 in assay [1], 5.13 in assay [2] and 5.18 in [3].

As to `C=C1C(=O)Oc2c(OC)cccc2[C@H]1[C@@H]1CCCCC1=O` (relative stereo), the pIC50 is 5.06 in assay [1]; 5.22 in assay [2]; 4.89 in assay [7]; 5.38 in [3]; 4.78 in [4]; 5.33 in assay [5]. Besides, the Activity in [6] was 16.5%; in assay [9], 29.7%; in assay [12], 64%; in assay [13], 36%; in assay [14], 17.9%; in [16], 5%. The Activity in [19] was found to be 28.7%; in [20], 47.5%; in assay [21], 52.5%; in assay [22] it was 2.2%. For the same molecule, the “Ratio IC50” value in [8] was 2; in assay [10], 5; in assay [18] it was 5. Moreover, the result in assay [11], in [15] and in assay [17] was Active.

Turning to `C=C1C(=O)Oc2ccc(Cl)cc2[C@H]1[C@@H]1CCc2cc(OC)ccc2C1=O` (relative stereo), the values for the negative logarithm of the IC50 (pIC50) in [1], in assay [2] and in assay [3] were 4.11, 5.25 and 5.80, respectively.

As for `C=C1C(=O)Oc2ccc(Cl)cc2[C@H]1[C@@H]1CCCC1=O` (relative stereo), the negative-log IC50 (pIC50) in [1] is 4.64; in assay [2] it was 3.29; in assay [3] it was less than 3.00.

As for `C=C1C(=O)Oc2c(OC)cccc2[C@H]1[C@@H]1CCCC1=O` (relative stereo), the negative-log IC50 (pIC50) in [1] is 4.82; in [2], 3.15; in assay [3], 3.11.

Turning to `C=C1C(=O)Oc2ccccc2[C@H]1[C@@H]1Cc2cc(OC)ccc2C1=O` (relative stereo), the figures for the negative-log IC50 (pIC50) in assay [1], in assay [2] and in assay [3] were 4.11, 5.26 and 6.19, respectively.

For `C=C1C(=O)Oc2ccccc2[C@H]1[C@@H]1CCc2cc(OC)ccc2C1=O` (relative stereo), the results for the pIC50 in assay [1], in [2] and in assay [3] were 4.12, 5.28 and 6.29, respectively.

`C=C1C(=O)Oc2c(OC)cccc2[C@H]1[C@@H]1Cc2ccccc2C1=O` (relative stereo): the pIC50 in assay [1] was 5.07; in assay [2], 5.25; in [3], 5.33.

For the molecule `C=C1C(=O)Oc2ccccc2[C@H]1[C@@H]1COCCC1=O` (relative stereo), the pIC50 in assay [1] was 4.58; in assay [2] it was 4.37; in [3], 4.87.

On to `C=C1C(=O)Oc2ccc(Cl)cc2[C@H]1[C@@H]1CCCCC1=O` (relative stereo), for which the pIC50 in [1] was 5.46; in assay [2] it was 4.07; in assay [3] it was 4.02.

For the origin of these results see ChEMBL document CHEMBL3994561 (Medchemcomm, 2016).
